Where two headings read alike, the source gives them in different places.
Legend:
Test in all cases: MIC, agar incorporation method
[1] = test system: S. pneumoniae AB 14; format: cell-based, Streptococcus pneumoniae
[2] = test system: E. durans 581; format: cell-based
[3] = test system: S. pneumoniae CS1221; format: cell-based, Streptococcus pneumoniae
[4] = test system: Serratia marcescens 12999; format: cell-based
[5] = test system: S. pneumoniae AB 30; format: cell-based, Streptococcus pneumoniae
[6] = test system: S. pneumoniae AB 23; format: cell-based, Streptococcus pneumoniae
[7] = test system: S. pneumoniae AB 21; format: cell-based, Streptococcus pneumoniae
[8] = test system: E. faecalis 21777; format: cell-based
[9] = test system: S. pyogenes 19615; format: cell-based, Streptococcus pyogenes
[10] = test system: S. aureus ATCC 25923; format: cell-based, Staphylococcus aureus
[11] = test system: S. pneumoniae AB 29; format: cell-based, Streptococcus pneumoniae
[12] = test system: S. epidermidis ATCC 12228; format: cell-based, Staphylococcus epidermidis
[13] = test system: S. pneumoniae AB 17; format: cell-based, Streptococcus pneumoniae
[14] = test system: S. aureus (MRSA 33) Cipro R; format: cell-based, Staphylococcus aureus
[15] = test system: P. aeruginosa ATCC 27853; format: cell-based
[16] = test system: S. epidermidis 358; format: cell-based, Staphylococcus epidermidis
[17] = test system: S. haemo ATCC 29970; format: cell-based
[18] = test system: S. pneumoniae AB 25; format: cell-based, Streptococcus pneumoniae
[19] = test system: S. aureus (MRSA) 21299; format: cell-based, Staphylococcus aureus
[20] = test system: S. pneumoniae AB4; format: cell-based, Streptococcus pneumoniae
[21] = test system: E. faecium 398(VRE); format: cell-based, Enterococcus faecium
[22] = test system: Moraxella M1; format: cell-based
[23] = test system: E. faecalis 29212; format: cell-based
[24] = test system: S. pyogenes 25147; format: cell-based, Streptococcus pyogenes
[25] = test system: E. faecium 6A (VRE); format: cell-based, Enterococcus faecium
[26] = test system: S. pneumoniae AB 10; format: cell-based, Streptococcus pneumoniae
[27] = test system: K. oxytoca 49131; format: cell-based
[28] = test system: S. epidermidis 823; format: cell-based, Staphylococcus epidermidis
[29] = test system: Acinetobacter 9956; format: cell-based
[30] = test system: S. pneumoniae ATCC 6303; format: cell-based, Streptococcus pneumoniae
[31] = test system: S. pneumoniae AB 22; format: cell-based, Streptococcus pneumoniae
[32] = test system: S. pneumoniae AB 16; format: cell-based, Streptococcus pneumoniae
[33] = test system: S. aureus (MRSA) 15187; format: cell-based, Staphylococcus aureus
[34] = test system: S. pyogenes 20361; format: cell-based, Streptococcus pyogenes
[35] = test system: S. pneumoniae AB-2; format: cell-based, Streptococcus pneumoniae
[36] = test system: E. coli 25922; format: cell-based

Measured: MIC

(S)—N-[[3-[-3-Fluoro-4-[(5-nitro-2-thienyl)-3-methyl-1-piperazinyl]phenyl]-2-oxo-5-oxazolidinyl]methyl]acetamide [Compound No. 10]
1 µg/mL: [8]; S. No. 18, E. faecalis 21777 | [10]; S. No. 1, organism cell empty | [14]; S. No. 7, S. aureus (MRSA 33) Cipro R | [19]; S. No. 5, S. aureus (MRSA) 21299 | [23]; S. No. 17, E. faecalis 29212 | [25]; S. No. 21, E. faecium 6A (VRE) | [33]; S. No. 4, S. aureus (MRSA) 15187
2 µg/mL: [22]; S. No. 58, Moraxella M1
>8 µg/mL: [4]; S. No. 29, Serratia marcescens 12999 | [15]; S. No. 28, P. aeruginosa ATCC 27853 | [27]; S. No. 27, K. oxytoca 49131 | [29]; S. No. 30, Acinetobacter 9956 | [36]; S. No. 25, E. coli 25922
0.5 µg/mL: [1]; S. No. 37, S. pneumoniae AB 14 | [2]; S. No. 24, E. durans 581 | [3]; S. No. 34, S. pneumoniae CS1221 | [6]; S. No. 43, S. pneumoniae AB 23 | [7]; S. No. 41, S. pneumoniae AB 21 | [9]; S. No. 51, S. pyogenes 19615 | [11]; S. No. 46, S. pneumoniae AB 29 | [13]; S. No. 40, S. pneumoniae AB 17 | [16]; S. No. 14, S. epidermidis 358 | [18]; S. No. 45, S. pneumoniae AB 25 | [20]; S. No. 33, S. pneumoniae AB4 | [21]; S. No. 22, E. faecium 398(VRE) | [24]; S. No. 52, S. pyogenes 25147 | [28]; S. No. 12, S. epidermidis 823 | [30]; S. No. 50, S. pneumoniae ATCC 6303 | [31]; S. No. 42, S. pneumoniae AB 22 | [32]; S. No. 39, S. pneumoniae AB 16 | [34]; S. No. 53, S. pyogenes 20361 | [35]; S. No. 31, S. pneumoniae AB-2
0.25 µg/mL: [5]; S. No. 47, S. pneumoniae AB 30 | [12]; S. No. 10, S. epidermidis ATCC 12228 | [17]; S. No. 15, S. haemo ATCC 29970 | [26]; S. No. 35, S. pneumoniae AB 10

O=C(NC[C@H]1CN(c2ccc(N3CCN(c4ccc([N+](=O)[O-])s4)CC3)c(F)c2)C(=O)O1)C(F)F [Compound No. 8, (S)—N-[[3-[3-Fluoro-4-[4-(5-nitro-2-thienyl)-1-piperazinyl]phenyl]-2-oxo-5-oxazolidinyl]methyl]difluoroacetamide]
> 8 µg/mL: [4]; Serratia marcescens, 12999 | [15]; Pseudomonas aeruginosa, ATCC27853 | [27]; Klebsiella oxytoca, 49131 | [36]; Escherichia coli, 25922
2 µg/mL: [8]; Enterococcus faecalis, 21777 | [10]; Staphylococcus aureus, ATCC25923 | [14]; Staphylococcus aureus, MRSA | [19]; Staphylococcus aureus, MRSA | [33]; Staphylococcus aureus, MRSA
8 µg/mL: [29]; Acinetobacter, 9956
0.125 µg/mL: [3]; Streptococcus pneumoniae, CS1221 | [12]; Staphylococcus epidermidis, ATCC12228 | [20]; Streptococcus pneumoniae, AB4 | [26]; Streptococcus pneumoniae, AB10 | [35]; Streptococcus pneumoniae, AB2
1 µg/mL: [22]; Moraxella, M1 | [25]; Enterococcus faecium, VRE
0.25 µg/mL: [1]; Streptococcus pneumoniae, AB14 | [2]; Enterococcus durans, 581 | [5]; Streptococcus pneumoniae, AB30 | [6]; Streptococcus pneumoniae, AB23 | [7]; Streptococcus pneumoniae, AB21 | [9]; Streptococcus pyogenes, 19615 | [11]; Streptococcus pneumoniae, AB29 | [13]; Streptococcus pneumoniae, AB17 | [16]; Staphylococcus epidermidis, 358 | [17] | [18]; Streptococcus pneumoniae, AB25 | [21]; Enterococcus faecium, VRE | [23]; Enterococcus faecalis, 29212 | [24]; Streptococcus pyogenes, 25147 | [28]; Staphylococcus epidermidis, 823 | [30]; Streptococcus pneumoniae, ATCC6303 | [31]; Streptococcus pneumoniae, AB22 | [32]; Streptococcus pneumoniae, AB16 | [34]; Streptococcus pyogenes, 20361

Reference: patent publication US20060293307A1, “Oxazolidinone derivatives as antimicrobials” (priority 2002, published 2006)
